Measurements reported in ChEMBL document CHEMBL3826911, “Rational design and synthesis of novel anti-prostate cancer agents bearing a 3,5-bis-trifluoromethylphenyl moiety” (Bioorg Med Chem Lett, 2016).

Tests used:
CWR22R = test: Antiproliferative activity against human 22Rv1 cells assessed as reduction in cell viability after 96 hrs by propidium iodide staining based fluorescence assay; type: functional
[1] = Antiproliferative activity against human DU145 cells assessed as reduction in cell viability after 96 hrs by propidium iodide staining based fluorescence assay; type: functional, DU-145
LNCaP = test: Antiproliferative activity against human LNCAP cells assessed as reduction in cell viability after 96 hrs by propidium iodide staining based fluorescence assay; type: functional
[2] = Antiproliferative activity against human VCaP cells assessed as reduction in cell viability after 96 hrs by propidium iodide staining based fluorescence assay; type: functional
HepG2 = test: Cytotoxicity against human HepG2 cells assessed as cell viability after 72 hrs by MTT assay; type: functional, cell-based; conditions: for AC50 / minimal effective concentration: HepG2, 72 h; for minimal effective concentration: read-out: MEC
[3] = Half life in human liver microsomes at 3 uM in presence of NADPH by LC-MS/MS analysis; type: ADME
Albumin = Albumin (Homo sapiens, UniProt P02768); test: Binding affinity to human serum albumin at 5 uM by equilibrium dialysis based LC-MS/MS analysis; type: ADME; conditions: read-out: PB (converted)
Chain of Albumin (P02768 whole entry): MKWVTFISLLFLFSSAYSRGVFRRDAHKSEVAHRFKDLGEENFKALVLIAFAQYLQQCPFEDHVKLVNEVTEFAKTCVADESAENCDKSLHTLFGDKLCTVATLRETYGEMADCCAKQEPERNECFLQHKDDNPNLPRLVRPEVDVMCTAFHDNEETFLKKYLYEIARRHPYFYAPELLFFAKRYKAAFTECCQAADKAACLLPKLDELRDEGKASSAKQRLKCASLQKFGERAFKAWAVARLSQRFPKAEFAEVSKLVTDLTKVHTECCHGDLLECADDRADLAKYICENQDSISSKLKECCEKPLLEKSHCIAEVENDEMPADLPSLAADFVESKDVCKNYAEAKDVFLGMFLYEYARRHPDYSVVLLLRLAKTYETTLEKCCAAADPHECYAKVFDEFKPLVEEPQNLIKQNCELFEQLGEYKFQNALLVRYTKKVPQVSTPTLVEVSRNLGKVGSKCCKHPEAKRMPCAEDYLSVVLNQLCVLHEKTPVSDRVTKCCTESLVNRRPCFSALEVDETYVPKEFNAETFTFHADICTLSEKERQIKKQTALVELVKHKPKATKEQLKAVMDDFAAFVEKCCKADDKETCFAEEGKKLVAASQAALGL

hERG (KCNH2) = hERG (KCNH2) (Homo sapiens, UniProt Q12809); test: Inhibition of human ERG transfected in CHO cells assessed as blockade of tail current at 25 uM by patch clamp assay; type: cell-based; conditions: CHO cells transfected with human ERG
Chain of hERG (KCNH2) (Q12809 whole entry): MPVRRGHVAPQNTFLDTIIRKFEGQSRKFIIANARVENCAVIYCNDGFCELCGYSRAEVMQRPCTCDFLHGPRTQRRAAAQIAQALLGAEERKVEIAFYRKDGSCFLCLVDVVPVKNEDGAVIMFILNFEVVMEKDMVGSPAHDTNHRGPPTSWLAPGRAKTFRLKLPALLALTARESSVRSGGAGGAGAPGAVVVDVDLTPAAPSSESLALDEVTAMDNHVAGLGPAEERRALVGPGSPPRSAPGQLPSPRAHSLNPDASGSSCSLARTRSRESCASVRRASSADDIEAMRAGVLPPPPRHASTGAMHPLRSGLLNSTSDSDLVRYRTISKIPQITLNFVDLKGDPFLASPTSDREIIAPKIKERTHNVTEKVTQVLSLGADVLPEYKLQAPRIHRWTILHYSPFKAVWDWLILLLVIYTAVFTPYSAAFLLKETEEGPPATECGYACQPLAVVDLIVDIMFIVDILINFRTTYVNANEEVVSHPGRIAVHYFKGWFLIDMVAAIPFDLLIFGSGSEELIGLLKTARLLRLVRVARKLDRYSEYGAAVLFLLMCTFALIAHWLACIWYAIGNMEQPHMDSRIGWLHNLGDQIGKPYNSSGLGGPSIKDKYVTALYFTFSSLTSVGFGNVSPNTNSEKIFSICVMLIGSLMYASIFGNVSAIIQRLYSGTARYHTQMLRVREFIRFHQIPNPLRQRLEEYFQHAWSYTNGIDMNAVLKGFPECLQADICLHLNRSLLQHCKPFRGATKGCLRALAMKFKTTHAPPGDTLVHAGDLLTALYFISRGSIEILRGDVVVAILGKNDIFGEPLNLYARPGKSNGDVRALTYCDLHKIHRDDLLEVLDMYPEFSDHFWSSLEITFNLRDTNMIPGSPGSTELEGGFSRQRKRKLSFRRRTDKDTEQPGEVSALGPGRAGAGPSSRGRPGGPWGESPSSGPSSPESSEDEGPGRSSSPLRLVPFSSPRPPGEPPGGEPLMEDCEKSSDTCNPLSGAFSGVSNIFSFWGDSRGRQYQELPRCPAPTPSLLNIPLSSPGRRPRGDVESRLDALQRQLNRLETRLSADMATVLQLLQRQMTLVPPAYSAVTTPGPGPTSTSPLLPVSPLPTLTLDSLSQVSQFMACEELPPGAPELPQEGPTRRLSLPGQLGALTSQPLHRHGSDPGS

[4] = Homo sapiens, 22Rv1, 96 h, read-out: IC50
[5] = Homo sapiens, DU-145, 96 h, read-out: IC50
[6] = Homo sapiens, LNCaP, 96 h, read-out: IC50
[7] = Homo sapiens, VCaP, 96 h, read-out: IC50

Row | SMILES | IC50 (CWR22R; [4]) | IC50 [1, 5] | IC50 (LNCaP; [6]) | IC50 [2, 7] | Activity (HepG2) | IC50 (CWR22R; cwr22r) | IC50 ([1]; du-145) | IC50 (LNCaP; lncap) | IC50 ([2]; vcap) | half-life at 3 µM [3] | AC50 (HepG2) | minimal effective concentration (HepG2) | fraction unbound at 5 µM (Albumin) | inhibition at 25 µM (hERG (KCNH2))
1 | CC(O)(CSc1cccc(C(F)(F)F)c1)C(=O)Nc1cc(C(F)(F)F)cc(C(F)(F)F)c1 (stereo not given) | 9.67 µM | 10 µM | 8.75 µM | 9.86 µM | Dose-dependent effect | – | – | – | – | – | – | – | – | –
2 | CC(O)(CSc1cc(C(F)(F)F)cc(C(F)(F)F)c1)C(=O)Nc1ccc(C(F)(F)F)cc1 (stereo not given) | 9.75 µM | 16.4 µM | 9.61 µM | 9.88 µM | Dose-dependent effect | – | – | – | – | – | – | – | – | –
3 | CC(O)(CS(=O)(=O)c1cccc(C(F)(F)F)c1)C(=O)Nc1cc(C(F)(F)F)cc(C(F)(F)F)c1 (stereo not given) | 10.3 µM | 11.5 µM | 9.5 µM | 9.98 µM | Dose-dependent effect | – | – | – | – | – | – | – | – | –
4 | CC(O)(CSc1cc(C(F)(F)F)cc(C(F)(F)F)c1)C(=O)Nc1ccc(C#N)cc1C(F)(F)F (stereo not given) | 4.65 µM | 9.09 µM | 7.76 µM | 6.65 µM | Dose-dependent effect | – | – | – | – | – | – | – | – | –
5 | CC1(C)C(=O)N(c2ccc(C#N)cc2C(F)(F)F)C(=S)N1c1cc(C(F)(F)F)cc(C(F)(F)F)c1 | – | – | – | – | Dose-dependent effect | ND(Insoluble) | ND(Insoluble) | ND(Insoluble) | ND(Insoluble) | – | – | – | – | –
6 | CNC(=O)c1ccc(N2C(=S)N(c3ccc(C#N)c(C(F)(F)F)c3)C(=O)C2(C)C)cc1F [ENZALUTAMIDE] | – | 32.3 µM | 11.5 µM | 53 µM | Dose-dependent effect | – | – | – | – | – | – | – | – | –
7 | C[C@](O)(CSc1cc(C(F)(F)F)cc(C(F)(F)F)c1)C(=O)Nc1ccc(C#N)c(C(F)(F)F)c1 | 1.13 µM | 2.66 µM | 0.79 µM | 0.84 µM | – | – | – | – | – | 0.108 h | 2.35 µM | 1.22 µM | – | –
8 | CC(O)(CSc1cc(C(F)(F)F)cc(C(F)(F)F)c1)C(=O)Nc1ccc(C#N)c(C(F)(F)F)c1 (stereo not given) | 1.9 µM | 2.85 µM | 2.34 µM | 2.73 µM | Dose-dependent effect | – | – | – | – | – | – | – | – | –
9 | CC(O)(CS(=O)(=O)c1ccccc1C(F)(F)F)C(=O)Nc1cc(C(F)(F)F)cc(C(F)(F)F)c1 (stereo not given) | 9.45 µM | 11 µM | 8.51 µM | 8.55 µM | Dose-dependent effect | – | – | – | – | – | – | – | – | –
10 | CC(O)(COc1cc(C(F)(F)F)cc(C(F)(F)F)c1)C(=O)Nc1ccc([N+](=O)[O-])cc1C(F)(F)F (stereo not given) | 16.1 µM | 11.6 µM | 24 µM | 23.7 µM | Dose-dependent effect | – | – | – | – | – | – | – | – | –
11 | CNC(=O)c1ccc(N2C(=S)N(c3cc(C(F)(F)F)cc(C(F)(F)F)c3)C(=O)C2(C)C)cc1 | 26.4 µM | 47.9 µM | 11.3 µM | 19.8 µM | Dose-dependent effect | – | – | – | – | – | – | – | – | –
12 | CC(O)(CSc1ccccc1C(F)(F)F)C(=O)Nc1cc(C(F)(F)F)cc(C(F)(F)F)c1 (stereo not given) | 4.37 µM | 8.66 µM | 3.57 µM | 3.84 µM | Dose-dependent effect | – | – | – | – | – | – | – | – | –
13 | CC(O)(CS(=O)(=O)c1ccc(F)cc1)C(=O)Nc1ccc(C#N)c(C(F)(F)F)c1 (stereo not given) | – | – | – | – | Dose-dependent effect | – | – | – | – | – | – | – | – | –
14 | CC(O)(CS(=O)(=O)c1cc(C(F)(F)F)cc(C(F)(F)F)c1)C(=O)Nc1ccc(C#N)cc1C(F)(F)F (stereo not given) | – | – | – | – | Dose-dependent effect | ND(Insoluble) | ND(Insoluble) | ND(Insoluble) | ND(Insoluble) | – | – | – | – | –
15 | CN(C)CCCN1c2ccccc2Sc2ccc(Cl)cc21 [CHLORPROMAZINE] | – | – | – | – | – | – | – | – | – | – | 7.62 µM | 2.07 µM | – | –
16 | CC(O)(COc1cc(C(F)(F)F)cc(C(F)(F)F)c1)C(=O)Nc1ccc(C#N)c(C(F)(F)F)c1 (stereo not given) | 2.64 µM | 4.7 µM | 3.01 µM | 2.47 µM | Dose-dependent effect | – | – | – | – | 32.2 h | – | – | 0.053 | 7.64%

Row | SMILES | IC50 (CWR22R; [4]) | IC50 [1, 5] | IC50 (LNCaP; [6]) | IC50 [2, 7] | Activity (HepG2) | IC50 (CWR22R; cwr22r) | IC50 ([1]; du-145) | IC50 (LNCaP; lncap) | IC50 ([2]; vcap) | half-life at 3 µM [3] | AC50 (HepG2) | minimal effective concentration (HepG2) | fraction unbound at 5 µM (Albumin) | inhibition at 25 µM (hERG (KCNH2))
17 | CC(O)(COc1cc(C(F)(F)F)cc(C(F)(F)F)c1)C(=O)Nc1ccc([N+](=O)[O-])c(C(F)(F)F)c1 (stereo not given) | 1.09 µM | 2.9 µM | 0.99 µM | 1.66 µM | Dose-dependent effect | – | – | – | – | – | – | – | – | –
18 | CC1(C)C(=O)N(c2ccc(C#N)c(C(F)(F)F)c2)C(=S)N1c1cc(C(F)(F)F)cc(C(F)(F)F)c1 | – | – | – | – | Dose-dependent effect | ND(Insoluble) | ND(Insoluble) | ND(Insoluble) | ND(Insoluble) | – | – | – | – | –
19 | CC(O)(CSc1ccccc1OC(F)(F)F)C(=O)Nc1cc(C(F)(F)F)cc(C(F)(F)F)c1 (stereo not given) | 2.94 µM | 6.41 µM | 2.91 µM | 2.9 µM | Dose-dependent effect | – | – | – | – | – | – | – | – | –
20 | CC(O)(COc1cc(C(F)(F)F)cc(C(F)(F)F)c1)C(=O)Nc1ccc(C(F)(F)F)cc1 (stereo not given) | 8.49 µM | 9.23 µM | 3.35 µM | 4.15 µM | Dose-dependent effect | – | – | – | – | – | – | – | – | –
21 | CC(O)(CS(=O)(=O)c1ccccc1OC(F)(F)F)C(=O)Nc1cc(C(F)(F)F)cc(C(F)(F)F)c1 (stereo not given) | 8.99 µM | 12.9 µM | 8.02 µM | 9.95 µM | Dose-dependent effect | – | – | – | – | 4.83 h | – | – | 0.217 | 13.4%
22 | CC1(C)C(=O)N(c2ccc([N+](=O)[O-])c(C(F)(F)F)c2)C(=S)N1c1cc(C(F)(F)F)cc(C(F)(F)F)c1 | 20.2 µM | 18.1 µM | 9.93 µM | 28.4 µM | Dose-dependent effect | – | – | – | – | – | – | – | – | –
23 | CC(O)(COc1cc(C(C)(C)C)cc(C(C)(C)C)c1)C(=O)Nc1ccc(C#N)c(C(F)(F)F)c1 (stereo not given) | 2.27 µM | 3.15 µM | 2.67 µM | 2.98 µM | Dose-dependent effect | – | – | – | – | – | – | – | – | –
24 | CC(O)(CSc1cccc(OC(F)(F)F)c1)C(=O)Nc1cc(C(F)(F)F)cc(C(F)(F)F)c1 (stereo not given) | 6.42 µM | 9.61 µM | 7.76 µM | 9.29 µM | Dose-dependent effect | – | – | – | – | – | – | – | – | –
25 | CC1(C)C(=O)N(c2ccc([N+](=O)[O-])cc2C(F)(F)F)C(=S)N1c1cc(C(F)(F)F)cc(C(F)(F)F)c1 | 6.97 µM | 10 µM | 4.67 µM | 18.6 µM | Dose-dependent effect | – | – | – | – | 1.19 h | – | – | 0.001 | 9.44%
26 | CC(O)(CSc1cc(C(F)(F)F)cc(C(F)(F)F)c1)C(=O)Nc1ccc([N+](=O)[O-])cc1C(F)(F)F (stereo not given) | 2.29 µM | 3.38 µM | 3.11 µM | 3.52 µM | Dose-dependent effect | – | – | – | – | – | – | – | – | –
27 | CC(O)(CS(=O)(=O)c1cc(C(F)(F)F)cc(C(F)(F)F)c1)C(=O)Nc1ccc(C#N)c(C(F)(F)F)c1 (stereo not given) | 3.11 µM | 5.58 µM | 2.86 µM | 6.21 µM | Dose-dependent effect | – | – | – | – | – | – | – | – | –
28 | CC(O)(COc1cc(C(F)(F)F)cc(C(F)(F)F)c1)C(=O)Nc1ccc(C#N)cc1C(F)(F)F (stereo not given) | 4.07 µM | 8.05 µM | 3.56 µM | 4.77 µM | Dose-dependent effect | – | – | – | – | – | – | – | – | –
29 | N#CC(C#N)=NNc1cccc(Cl)c1 [CARBONYL CYANIDE M-CHLOROPHENYLHYDRAZONE] | – | – | – | – | – | – | – | – | – | – | 8.28 µM | 3.25 µM | – | –
30 | CC(O)(CS(=O)(=O)c1cccc(OC(F)(F)F)c1)C(=O)Nc1cc(C(F)(F)F)cc(C(F)(F)F)c1 (stereo not given) | 12.8 µM | 14.1 µM | 9.34 µM | 9.99 µM | Dose-dependent effect | – | – | – | – | – | – | – | – | –
31 | CC(O)(CS(=O)(=O)c1cc(C(F)(F)F)cc(C(F)(F)F)c1)C(=O)Nc1ccc([N+](=O)[O-])cc1C(F)(F)F (stereo not given) | 2.41 µM | 3.05 µM | 3.09 µM | 7.11 µM | Dose-dependent effect | – | – | – | – | – | – | – | – | –
